Laboratory results taken from patent US9492471B2, “Methods of treating a disease or disorder associated with Bruton'S Tyrosine Kinase” (Celgene Avilomics Research, Inc., priority 2013, dated 2016).
Where two headings read alike, the source gives them in different places.

Tests used:
Test in all cases: HotSpot kinase profiling
Type in all cases: biochemical
TRKB = target: T1, TRKB (Homo sapiens, UniProt Q16620)
T1 construct: purchased Reaction Biology Corp
In short: (§1)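 Activity is measured by radiolabel transfer captured on P81 filters after a 2 h room-temperature reaction of kinase, substrate and cofactors. Values are percent inhibition against DMSO.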

JAK3 = target: T2, JAK3 (Homo sapiens, UniProt P52333)
T2 construct: purchased Reaction Biology Corp
T2 sequence (P52333 1-1124): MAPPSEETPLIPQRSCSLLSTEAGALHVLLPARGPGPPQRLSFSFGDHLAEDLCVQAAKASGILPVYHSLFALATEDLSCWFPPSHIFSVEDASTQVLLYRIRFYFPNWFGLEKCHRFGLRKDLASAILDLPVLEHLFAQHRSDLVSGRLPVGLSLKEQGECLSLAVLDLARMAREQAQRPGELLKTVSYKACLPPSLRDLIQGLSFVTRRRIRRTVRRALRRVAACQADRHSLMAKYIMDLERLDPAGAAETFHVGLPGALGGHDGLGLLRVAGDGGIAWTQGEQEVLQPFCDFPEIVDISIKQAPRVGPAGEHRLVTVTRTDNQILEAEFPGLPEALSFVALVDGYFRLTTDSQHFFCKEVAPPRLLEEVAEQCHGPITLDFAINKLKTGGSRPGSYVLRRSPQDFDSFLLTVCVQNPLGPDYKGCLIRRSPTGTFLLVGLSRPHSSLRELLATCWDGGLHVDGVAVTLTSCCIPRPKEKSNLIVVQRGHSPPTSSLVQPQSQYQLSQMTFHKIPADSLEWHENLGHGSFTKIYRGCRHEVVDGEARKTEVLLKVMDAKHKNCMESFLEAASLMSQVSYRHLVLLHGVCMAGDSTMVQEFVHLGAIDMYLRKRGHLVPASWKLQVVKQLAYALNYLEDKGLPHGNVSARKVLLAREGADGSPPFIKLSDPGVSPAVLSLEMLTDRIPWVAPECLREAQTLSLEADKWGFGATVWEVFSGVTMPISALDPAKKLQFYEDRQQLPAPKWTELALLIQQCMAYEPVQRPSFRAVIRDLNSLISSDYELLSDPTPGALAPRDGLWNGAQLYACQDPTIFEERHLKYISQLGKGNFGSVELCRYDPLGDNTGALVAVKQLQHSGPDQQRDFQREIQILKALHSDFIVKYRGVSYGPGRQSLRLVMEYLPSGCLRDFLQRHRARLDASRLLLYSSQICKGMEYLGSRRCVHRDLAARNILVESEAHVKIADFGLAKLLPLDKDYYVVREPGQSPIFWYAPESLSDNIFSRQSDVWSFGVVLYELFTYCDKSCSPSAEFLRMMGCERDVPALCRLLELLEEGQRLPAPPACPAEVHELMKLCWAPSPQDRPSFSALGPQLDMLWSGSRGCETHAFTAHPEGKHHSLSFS
In short: as §1

DDR1 = target: T3, DDR1 (Homo sapiens, UniProt Q08345)
T3 construct: purchased Reaction Biology Corp
T3 sequence (Q08345 19-913): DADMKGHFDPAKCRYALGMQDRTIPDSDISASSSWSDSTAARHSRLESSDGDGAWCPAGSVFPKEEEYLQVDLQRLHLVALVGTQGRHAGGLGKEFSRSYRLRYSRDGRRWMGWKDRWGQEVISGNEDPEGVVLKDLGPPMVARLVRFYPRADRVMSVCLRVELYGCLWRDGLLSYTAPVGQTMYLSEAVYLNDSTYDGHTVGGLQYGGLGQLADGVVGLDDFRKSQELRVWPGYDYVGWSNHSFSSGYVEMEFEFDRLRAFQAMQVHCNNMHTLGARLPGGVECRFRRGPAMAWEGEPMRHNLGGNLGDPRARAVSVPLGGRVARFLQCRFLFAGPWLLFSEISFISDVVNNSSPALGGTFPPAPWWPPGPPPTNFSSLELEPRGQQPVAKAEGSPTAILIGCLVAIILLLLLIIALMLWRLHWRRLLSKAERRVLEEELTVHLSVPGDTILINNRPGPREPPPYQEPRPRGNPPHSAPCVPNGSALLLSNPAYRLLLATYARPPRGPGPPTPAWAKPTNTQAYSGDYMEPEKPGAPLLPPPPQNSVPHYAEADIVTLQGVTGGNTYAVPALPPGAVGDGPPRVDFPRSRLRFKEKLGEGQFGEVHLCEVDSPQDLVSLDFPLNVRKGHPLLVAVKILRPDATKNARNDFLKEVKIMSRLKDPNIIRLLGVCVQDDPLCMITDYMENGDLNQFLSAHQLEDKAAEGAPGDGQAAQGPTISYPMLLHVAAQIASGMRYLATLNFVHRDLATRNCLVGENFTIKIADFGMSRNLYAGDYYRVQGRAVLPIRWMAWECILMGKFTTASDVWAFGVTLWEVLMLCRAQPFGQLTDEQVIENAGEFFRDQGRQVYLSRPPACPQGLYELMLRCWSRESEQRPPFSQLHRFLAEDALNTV
In short: as §1

RIPK2 = target: T4, RIPK2 (Homo sapiens, UniProt O43353)
T4 construct: purchased Reaction Biology Corp
T4 sequence (O43353 whole entry): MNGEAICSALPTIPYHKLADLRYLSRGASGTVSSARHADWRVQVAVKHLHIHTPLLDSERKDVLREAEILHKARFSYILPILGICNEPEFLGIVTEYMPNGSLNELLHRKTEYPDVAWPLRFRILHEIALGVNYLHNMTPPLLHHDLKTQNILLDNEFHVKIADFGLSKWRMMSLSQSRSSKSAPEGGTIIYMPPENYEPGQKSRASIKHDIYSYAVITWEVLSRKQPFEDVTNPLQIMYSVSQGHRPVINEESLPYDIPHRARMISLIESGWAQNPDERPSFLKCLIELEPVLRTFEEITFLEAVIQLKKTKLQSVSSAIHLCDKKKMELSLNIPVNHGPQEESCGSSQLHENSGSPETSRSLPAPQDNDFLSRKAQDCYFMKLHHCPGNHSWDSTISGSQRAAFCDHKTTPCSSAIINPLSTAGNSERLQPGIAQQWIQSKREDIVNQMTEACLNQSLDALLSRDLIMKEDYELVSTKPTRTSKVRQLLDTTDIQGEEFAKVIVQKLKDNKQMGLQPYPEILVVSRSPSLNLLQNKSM
In short: as §1

STK16 = target: T5, STK16 (Homo sapiens, UniProt O75716)
T5 construct: purchased Reaction Biology Corp
T5 sequence (O75716 whole entry): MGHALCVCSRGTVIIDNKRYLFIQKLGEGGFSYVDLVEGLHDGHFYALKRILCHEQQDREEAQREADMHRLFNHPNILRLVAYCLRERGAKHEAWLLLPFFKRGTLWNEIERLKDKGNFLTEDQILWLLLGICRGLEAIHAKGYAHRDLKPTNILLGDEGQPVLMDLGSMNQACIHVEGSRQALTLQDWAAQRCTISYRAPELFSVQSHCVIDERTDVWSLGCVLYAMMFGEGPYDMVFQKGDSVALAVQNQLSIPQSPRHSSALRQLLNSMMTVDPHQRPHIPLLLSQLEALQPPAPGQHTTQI
In short: as §1

TAOK1 = target: T6, TAOK1 (Homo sapiens, UniProt Q7L7X3)
T6 construct: purchased Reaction Biology Corp
T6 sequence (Q7L7X3 1-1001): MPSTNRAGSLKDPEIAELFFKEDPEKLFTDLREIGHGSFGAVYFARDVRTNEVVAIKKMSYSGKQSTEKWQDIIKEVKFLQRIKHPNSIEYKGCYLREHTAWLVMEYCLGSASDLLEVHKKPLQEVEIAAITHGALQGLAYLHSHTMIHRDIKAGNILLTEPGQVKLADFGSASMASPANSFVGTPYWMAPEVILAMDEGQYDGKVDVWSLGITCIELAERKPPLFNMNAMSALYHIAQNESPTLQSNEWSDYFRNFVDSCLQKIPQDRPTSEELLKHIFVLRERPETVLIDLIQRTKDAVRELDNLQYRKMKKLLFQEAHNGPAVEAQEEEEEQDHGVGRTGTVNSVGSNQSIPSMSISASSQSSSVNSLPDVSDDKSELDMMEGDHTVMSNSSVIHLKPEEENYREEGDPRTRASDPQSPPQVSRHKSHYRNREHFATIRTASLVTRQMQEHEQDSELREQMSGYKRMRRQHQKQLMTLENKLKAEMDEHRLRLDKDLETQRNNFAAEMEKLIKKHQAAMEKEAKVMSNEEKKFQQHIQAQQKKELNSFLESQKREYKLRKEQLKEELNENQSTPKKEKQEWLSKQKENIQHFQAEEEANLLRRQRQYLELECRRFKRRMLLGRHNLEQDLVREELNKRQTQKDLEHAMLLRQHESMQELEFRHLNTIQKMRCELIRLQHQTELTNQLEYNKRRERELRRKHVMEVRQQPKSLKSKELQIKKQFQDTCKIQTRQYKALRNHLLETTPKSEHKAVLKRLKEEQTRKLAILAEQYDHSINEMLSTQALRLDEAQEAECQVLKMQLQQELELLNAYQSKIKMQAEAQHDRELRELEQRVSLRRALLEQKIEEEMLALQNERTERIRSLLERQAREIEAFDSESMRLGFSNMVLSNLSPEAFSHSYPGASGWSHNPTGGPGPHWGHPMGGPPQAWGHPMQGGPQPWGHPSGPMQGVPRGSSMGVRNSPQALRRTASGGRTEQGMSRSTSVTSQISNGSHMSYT
In short: as §1

[1] = read-out: % Enzyme Activity (relative to DMSO controls) Run 1
[2] = read-out: % Enzyme Activity (relative to DMSO controls) Run 2

T1 sequence (Q16620 32-822): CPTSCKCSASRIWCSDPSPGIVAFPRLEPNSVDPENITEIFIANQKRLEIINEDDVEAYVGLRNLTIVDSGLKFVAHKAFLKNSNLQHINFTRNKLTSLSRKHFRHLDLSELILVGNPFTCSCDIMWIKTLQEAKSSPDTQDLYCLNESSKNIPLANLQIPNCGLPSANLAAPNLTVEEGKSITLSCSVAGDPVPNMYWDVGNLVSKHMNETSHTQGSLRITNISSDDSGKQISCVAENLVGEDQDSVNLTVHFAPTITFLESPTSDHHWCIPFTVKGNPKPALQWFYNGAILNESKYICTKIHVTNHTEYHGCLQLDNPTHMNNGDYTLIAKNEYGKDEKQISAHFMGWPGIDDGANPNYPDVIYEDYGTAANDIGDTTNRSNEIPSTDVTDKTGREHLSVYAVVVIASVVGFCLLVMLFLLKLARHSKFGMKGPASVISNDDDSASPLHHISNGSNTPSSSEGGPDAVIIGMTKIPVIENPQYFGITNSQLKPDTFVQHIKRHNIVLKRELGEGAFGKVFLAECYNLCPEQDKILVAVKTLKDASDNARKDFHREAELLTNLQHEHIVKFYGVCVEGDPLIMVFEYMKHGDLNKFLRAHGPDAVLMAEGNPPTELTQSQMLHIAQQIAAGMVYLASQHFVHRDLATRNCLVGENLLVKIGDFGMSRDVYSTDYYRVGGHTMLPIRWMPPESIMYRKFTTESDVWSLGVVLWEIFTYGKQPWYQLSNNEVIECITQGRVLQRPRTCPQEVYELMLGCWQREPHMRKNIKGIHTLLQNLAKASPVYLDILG

C=CC(=O)Nc1cccc(Nc2nc(Nc3ccc(OCCOC)c(F)c3)ncc2F)c1 [Compound 2]
inhibition at 3 µM (TRKB): 14.2% | remaining activity at 3 µM (TRKB; [1]): 86.5% | remaining activity at 3 µM (TRKB; [2]): 85% | inhibition at 3 µM (JAK3): 97.4% | remaining activity at 3 µM (JAK3; [1]): 2.53% | remaining activity at 3 µM (JAK3; [2]): 2.73% | inhibition at 3 µM (DDR1): 75.1% | remaining activity at 3 µM (DDR1; [1]): 25.7% | remaining activity at 3 µM (DDR1; [2]): 24.1% | inhibition at 3 µM (RIPK2): 23.7% | remaining activity at 3 µM (RIPK2; [1]): 77.6% | remaining activity at 3 µM (RIPK2; [2]): 75% | inhibition at 3 µM (STK16): 78% | remaining activity at 3 µM (STK16; [1]): 22.9% | remaining activity at 3 µM (STK16; [2]): 21% | inhibition at 3 µM (TAOK1): 1.63% | remaining activity at 3 µM (TAOK1; [1]): 100% | remaining activity at 3 µM (TAOK1; [2]): 96.2%
